The record followed here is patent US8153809B2, “Dihydropyridone ureas as P2X7 modulators” (Roche Palo Alto LLC, priority 2008, dated 2012).

In this assay the target is T1, P2X7 (UniProt Q99572).
T1 sequence (Q99572 1-595): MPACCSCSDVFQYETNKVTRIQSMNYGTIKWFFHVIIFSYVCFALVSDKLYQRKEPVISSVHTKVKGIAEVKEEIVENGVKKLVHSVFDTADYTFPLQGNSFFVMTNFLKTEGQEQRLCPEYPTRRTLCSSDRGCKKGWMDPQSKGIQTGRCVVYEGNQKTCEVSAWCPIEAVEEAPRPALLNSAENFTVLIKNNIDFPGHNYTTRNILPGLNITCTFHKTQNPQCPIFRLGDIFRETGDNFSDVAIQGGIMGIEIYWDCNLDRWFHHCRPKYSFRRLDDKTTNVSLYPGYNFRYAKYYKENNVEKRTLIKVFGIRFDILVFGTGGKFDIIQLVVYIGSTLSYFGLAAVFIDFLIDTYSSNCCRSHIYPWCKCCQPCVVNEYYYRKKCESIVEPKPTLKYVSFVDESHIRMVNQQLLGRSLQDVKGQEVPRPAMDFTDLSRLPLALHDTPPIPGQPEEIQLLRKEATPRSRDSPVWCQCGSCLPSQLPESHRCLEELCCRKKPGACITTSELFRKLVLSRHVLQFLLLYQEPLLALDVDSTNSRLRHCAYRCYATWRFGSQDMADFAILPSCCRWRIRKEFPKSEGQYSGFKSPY
Put plainly: pIC50 values for P2X7 (Table 1). The format is cell-based. The method, boiled down: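 Fluo-3-loaded 1321N1 cells expressing human P2X7 or HEK293 cells expressing rat P2X7, preincubated 20 min at room temperature with antagonist in HBSS/Hepes/probenecid buffer with 2 mM CaCl2. BzATP agonist at 100 μM final (human) or 5 μM final (rat); fluorescence read 5 min, peak normalized to 5 μM ionomycin response.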
By pIC50 is commonly meant the IC50 on a negative log10 scale, so that one unit is a factor of ten. Lower therefore signals a large IC50. Turning to `COc1ccc(NC(=O)N2C=CC(=O)C[C@H]2c2ccc(F)cc2)c(Br)c1` [Compound 89, (S)-2-(4-Fluoro-phenyl)-4-oxo-3,4-dihydro-2H-pyridine-1-carboxylic acid (2-bromo-4-methoxy-phenyl)-amide], the negative-log IC50 (pIC50) was determined as 7.45.

Compound `Cc1cc2c(cc1NC(=O)N1C=CC(=O)C[C@H]1c1ccc(F)cc1)OCCN2C` [Compound 143, (S)-2-(4-Fluoro-phenyl)-4-oxo-3,4-dihydro-2H-pyridine-1-carboxylic acid (4,6-dimethyl-3,4-dihydro-2H-benzo[1,4]oxazin-7-yl)-amide] displayed a negative logarithm of the IC50 (pIC50) of 7.825. As for `Cc1n[nH]c2cc(NC(=O)N3C=CC(=O)C[C@H]3c3ccc(F)cc3)c(Br)cc12` [Compound 36, (S)-2-(4-Fluoro-phenyl)-4-oxo-3,4-dihydro-2H-pyridine-1-carboxylic acid (5-bromo-3-methyl-1H-indazol-6-yl)-amide], the negative-log IC50 (pIC50) worked out at 6.905. Under `Cn1ccc2ccc(NC(=O)N3C=CC(=O)C[C@H]3c3ccc(F)cc3)cc21` [Compound 101, (S)-2-(4-Fluoro-phenyl)-4-oxo-3,4-dihydro-2H-pyridine-1-carboxylic acid (1-methyl-1H-indol-6-yl)-amide] stands 7.57; under `COc1cc(NC(=O)N2C=CC(=O)CC2c2ccccc2F)c(Br)cc1C` (stereo not shown) [Compound 41, 2-(2-Fluoro-phenyl)-4-oxo-3,4-dihydro-2H-pyridine-1-carboxylic acid (2-bromo-5-methoxy-4-methyl-phenyl)-amide], 6.43; under `Cc1ccc(NC(=O)N2C=CC(=O)C[C@H]2c2ccc(F)cc2)cc1` [Compound 137, (S)-2-(4-Fluoro-phenyl)-4-oxo-3,4-dihydro-2H-pyridine-1-carboxylic acid p-tolylamide], 6.57. As for `COc1ccccc1NC(=O)N1C=CC(=O)CC1c1ccc(F)cc1` (stereo not shown) [Compound 105, 2-(4-Fluoro-phenyl)-4-oxo-3,4-dihydro-2H-pyridine-1-carboxylic acid (2-methoxy-phenyl)-amide], the pIC50 worked out at 5.91. `COC(=O)c1cccc(NC(=O)N2C=CC(=O)C[C@@H]2c2ccc(F)cc2)c1C` [Compound 94, 3-{[(R)-2-(4-Fluoro-phenyl)-4-oxo-3,4-dihydro-2H-pyridine-1-carbonyl]-amino}-2-methyl-benzoic acid methyl ester] came in with a negative logarithm of the IC50 (pIC50) of 6.13. In turn, `COc1cc(NC(=O)N2C=CC(=O)C[C@H]2c2cccc(F)c2)ccc1F` [Compound 73, (S)-2-(3-Fluoro-phenyl)-4-oxo-3,4-dihydro-2H-pyridine-1-carboxylic acid (4-fluoro-3-methoxy-phenyl)-amide] came in with a pIC50 of 6.83.

For the compound `COc1cc(NC(=O)N2C=CC(=O)CC2c2ccc(F)cc2)c(N(C)C)cc1OC` (stereo not shown) [Compound 115, 2-(4-Fluoro-phenyl)-4-oxo-3,4-dihydro-2H-pyridine-1-carboxylic acid (2-dimethylamino-4,5-dimethoxy-phenyl)-amide], the pIC50 came out at 5.915.

On to `COc1cc(NC(=O)N2C=CC(=O)C[C@H]2c2ccccc2)c(Br)cc1Cl` [Compound 4, (S)-4-Oxo-2-phenyl-3,4-dihydro-2H-pyridine-1-carboxylic acid (2-bromo-4-chloro-5-methoxy-phenyl)-amide], for which the pIC50 was found to be 7.476. Under `COc1cc(NC(=O)N2C=CC(=O)C[C@H]2c2ccc(F)cc2)c(Br)cc1OC(F)F` [Compound 42, (S)-2-(4-Fluoro-phenyl)-4-oxo-3,4-dihydro-2H-pyridine-1-carboxylic acid (2-bromo-4-difluoromethoxy-5-methoxy-phenyl)-amide] stands 7.503; under `CC(O)c1cc(NC(=O)N2C=CC(=O)C[C@H]2c2ccc(F)cc2)c(Br)cc1Cl` (stereo partly drawn) [Compound 57, (S)-2-(4-Fluoro-phenyl)-4-oxo-3,4-dihydro-2H-pyridine-1-carboxylic acid [2-bromo-4-chloro-5-(1-hydroxy-ethyl)-phenyl]-amide], 7.42.
